# Source: ChEMBL document CHEMBL3046763 (J Pestic Sci, 2000)
# Experiments:
# [1] = tested on: Spodoptera litura; experiment: Insecticidal activity against Spodoptera litura assessed as mortality at 50 ppm by filter paper method; type: functional
# [2] = tested on: Delphacodes; experiment: Insecticidal activity against Delphacodes striatellus assessed as mortality at 10 ppm by test tube method; type: functional
# [3] = tested on: Delphacodes; experiment: Insecticidal activity against Delphacodes striatellus assessed as mortality at 50 ppm by test tube method; type: functional
# [4] = Acute toxicity in po dosed Mus musculus ddY (mouse); type: organism-based; details: in vivo, read-out: LC50 (the source's name)
# [5] = tested on: Spodoptera litura; experiment: Insecticidal activity against Spodoptera litura assessed as mortality by filter paper method; type: functional
smiles,measurement,setting,value
CCOC(=O)CC(SP(=S)(OC)OC)C(=O)OCC (stereo not given) [MALATHION],mortality at 50 ppm,[1],100%
same,mortality at 10 ppm,[2],77%
same,mortality at 50 ppm,[3],100%
same,LD50,[4],347 mg/kg
same,LC50,[5],8.3 µg/mL
